pIC50: −log10 of the molar value.
Tested on: 422866-222-R5-J1-PDC complex spheroids viability
Assay: Anticancer human tumor 422866-222-R5-J1-PDC patient-derived pancreatic adenocarcinoma cell line growth inhibition [RAS]
Conditions: for pIC50: curve of first compound; for viability, T/C: stronger effect = lower value
How it was run: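 Multi-cell-type spheroids: tumor cells plus HUVEC endothelial cells and mesenchymal stem cells. RAS-pathway inhibitors were combined with targeted agents, each dosed in half-log steps down from clinical Cmax, or from 10 microM when Cmax was unknown.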

[1] = second compound 0.000949 µM, first compound 0.0316 µM
[2] = second compound 0.000949 µM, first compound 0.1 µM
[3] = second compound 0.000949 µM, first compound 0.316 µM
[4] = second compound 0.000949 µM, first compound 1 µM
[5] = second compound 0.000949 µM, first compound 3.16 µM
[6] = second compound 0.000949 µM, first compound 10 µM
[7] = second compound 0.003 µM, first compound 0.0316 µM
[8] = second compound 0.003 µM, first compound 0.1 µM
[9] = second compound 0.003 µM, first compound 0.316 µM
[10] = second compound 0.003 µM, first compound 1 µM
[11] = second compound 0.003 µM, first compound 3.16 µM
[12] = second compound 0.003 µM, first compound 10 µM
[13] = second compound 0.00949 µM, first compound 0.0316 µM
[14] = second compound 0.00949 µM, first compound 0.1 µM
[15] = second compound 0.00949 µM, first compound 0.316 µM
[16] = second compound 0.00949 µM, first compound 1 µM
[17] = second compound 0.00949 µM, first compound 3.16 µM
[18] = second compound 0.00949 µM, first compound 10 µM
[19] = second compound 0.03 µM, first compound 0.0316 µM
[20] = second compound 0.03 µM, first compound 0.1 µM
[21] = second compound 0.03 µM, first compound 0.316 µM
[22] = second compound 0.03 µM, first compound 1 µM
[23] = second compound 0.03 µM, first compound 3.16 µM
[24] = second compound 0.03 µM, first compound 10 µM
[25] = second compound 0.0949 µM, first compound 0.0316 µM
[26] = second compound 0.0949 µM, first compound 0.1 µM
[27] = second compound 0.0949 µM, first compound 0.316 µM
[28] = second compound 0.0949 µM, first compound 1 µM
[29] = second compound 0.0949 µM, first compound 3.16 µM
[30] = second compound 0.0949 µM, first compound 10 µM
[31] = second compound 0.3 µM, first compound 0.0316 µM
[32] = second compound 0.3 µM, first compound 0.1 µM
[33] = second compound 0.3 µM, first compound 0.316 µM
[34] = second compound 0.3 µM, first compound 1 µM
[35] = second compound 0.3 µM, first compound 3.16 µM
[36] = second compound 0.3 µM, first compound 10 µM
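Also: spheroids exposed to compounds for 7 days.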
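For viability, T/C in this document: 100% = DMSO vehicle control viability.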

## C[C@@H](NC(=O)c1ncnc(N)c1Cl)c1ncc(C(=O)Nc2cc(C(F)(F)F)c(Cl)cn2)s1 + CCn1c(-c2cccnc2C(C)OC)c2c3cc(ccc31)N1CCOC(CC(NC(=O)C(C(C)C)N(C)C(=O)C3(F)CCN(C(=O)C#CC(C)(C)N(C)C)CC3)C(=O)N3CCCC(N3)C(=O)OCC(C)(C)C2)C1
Second compound 0.000949 µM
  pIC50: > 7.50
Second compound 0.003 µM
  pIC50: > 7.50
Second compound 0.00949 µM
  pIC50: > 7.50
Second compound 0.03 µM
  pIC50: > 7.50
Second compound 0.0949 µM
  pIC50: > 7.50
Second compound 0.3 µM
  pIC50: > 7.50
[1]
  viability, T/C: 32%
[2]
  viability, T/C: 30.9%
[3]
  viability, T/C: 30.3%
[4]
  viability, T/C: 32.5%
[5]
  viability, T/C: 29%
[6]
  viability, T/C: 37%
[7]
  viability, T/C: 25.3%
[8]
  viability, T/C: 24%
[9]
  viability, T/C: 28.5%
[10]
  viability, T/C: 25.6%
[11]
  viability, T/C: 25.5%
[12]
  viability, T/C: 26.3%
[13]
  viability, T/C: 26.9%
[14]
  viability, T/C: 23.2%
[15]
  viability, T/C: 23.7%
[16]
  viability, T/C: 22.2%
[17]
  viability, T/C: 24.6%
[18]
  viability, T/C: 23.6%
[19]
  viability, T/C: 24.7%
[20]
  viability, T/C: 19.7%
[21]
  viability, T/C: 22.7%
[22]
  viability, T/C: 21.7%
[23]
  viability, T/C: 25.2%
[24]
  viability, T/C: 21%
[25]
  viability, T/C: 17.8%
[26]
  viability, T/C: 18.4%
[27]
  viability, T/C: 21.8%
[28]
  viability, T/C: 20.2%
[29]
  viability, T/C: 20.7%
[30]
  viability, T/C: 21.7%
[31]
  viability, T/C: 18%
[32]
  viability, T/C: 17.8%
[33]
  viability, T/C: 21.5%
[34]
  viability, T/C: 20%
[35]
  viability, T/C: 21.7%
[36]
  viability, T/C: 26.1%

## Cc1nc(N2CCC3(CC2)COC(C)C3N)c(CO)nc1Sc1ccnc(N)c1Cl (centres undefined) + CCn1c(-c2cccnc2C(C)OC)c2c3cc(ccc31)N1CCOC(CC(NC(=O)C(C(C)C)N(C)C(=O)C3(F)CCN(C(=O)C#CC(C)(C)N(C)C)CC3)C(=O)N3CCCC(N3)C(=O)OCC(C)(C)C2)C1
Second compound 0.000949 µM
  pIC50: > 7.50
Second compound 0.003 µM
  pIC50: > 7.50
Second compound 0.00949 µM
  pIC50: > 7.50
Second compound 0.03 µM
  pIC50: > 7.50
Second compound 0.0949 µM
  pIC50: > 7.50
Second compound 0.3 µM
  pIC50: > 7.50
[1]
  viability, T/C: 23.6%
[2]
  viability, T/C: 22.8%
[3]
  viability, T/C: 17.9%
[4]
  viability, T/C: 17.6%
[5]
  viability, T/C: 16.4%
[6]
  viability, T/C: 17.5%
[7]
  viability, T/C: 20.9%
[8]
  viability, T/C: 18.5%
[9]
  viability, T/C: 17.1%
[10]
  viability, T/C: 17.9%
[11]
  viability, T/C: 15.9%
[12]
  viability, T/C: 23.2%
[13]
  viability, T/C: 20%
[14]
  viability, T/C: 16.3%
[15]
  viability, T/C: 15.8%
[16]
  viability, T/C: 14.1%
[17]
  viability, T/C: 16.4%
[18]
  viability, T/C: 13.6%
[19]
  viability, T/C: 20.8%
[20]
  viability, T/C: 15.6%
[21]
  viability, T/C: 12.8%
[22]
  viability, T/C: 14.9%
[23]
  viability, T/C: 13.5%
[24]
  viability, T/C: 13.8%
[25]
  viability, T/C: 15.6%
[26]
  viability, T/C: 13.4%
[27]
  viability, T/C: 13.9%
[28]
  viability, T/C: 11.9%
[29]
  viability, T/C: 15.6%
[30]
  viability, T/C: 14.2%
[31]
  viability, T/C: 17.5%
[32]
  viability, T/C: 13.9%
[33]
  viability, T/C: 14.9%
[34]
  viability, T/C: 12.5%
[35]
  viability, T/C: 17.3%
[36]
  viability, T/C: 18.8%

Source: PubChem BioAssay AID2060901 (Molecular Pharmacology Branch, DTP, NCI, 2025)
